According to patent US11560597B2, “Application of epigenetic chromosomal interactions in cancer diagnostics” (Oxford BioDynamics, PLC, priority 2016, dated 2023):
Where “and” joins values, the source holds several entries; their conditions need not be identical. Equal entries are not always repeated. Entries after “also recorded” stand apart in the source; their conditions may differ.

Key:
[1] = tested on: MMP1 chromosome conformations; test: MMP-1 3C quantification in DBTRG-05MG (glioblastoma) cells treated with GSK864; type: cell-based
Description: (§1) MMP-1 3C quantification with no-fixation controls and a formaldehyde treated samples. The exemplary cell lines used in this application are: • (a) DBTRG-05MG (glioblastoma). • (b) HL-60 (acute myeloid leukaemia).
These cell lines have been treated with the IDH1 inhibitor GSK864 over 24 hrs and 48 hrs.

[2] = tested on: MMP1 chromosome conformations; test: MMP-1 3C quantification in HL-60 (acute myeloid leukaemia) cells treated with GSK864; type: cell-based
Description: as §1
The HL60 cell lines have been treated with the IDH1 inhibitor GSK864 over 24 hrs and 48 hrs.

[3] = tested on: cKIT 3C interaction ORF3_4_54711719_54715167_54736749_54740853_FR; test: cKIT 3C interaction PCR on imatinib treated BT142 cells; type: cell-based; settings: 1 μm imatinib, 20 ng of template per well
Description: Example of novel data regarding the action of imatinib in the following imatinib responsive selected gene is described below. 20 ng of template was added to each well for samples treated with imatinib.
cKIT and exemplary data. The BT142 cells have been treated with 1 μm of imatinib. 20 ng of template was loaded into each well.
The product in well Cl has been confirmed as the cKIT interaction named above (ORF3_4_54711719_54715167_54736749_54740853_FR).

MMP1 3C interaction = MMP1 3C interaction hydrolysis probe qPCR in BT142 cell line; settings: BT142 cells, imatinib 1 μM

COc1c(C)cc(NC(=O)c2nn(Cc3ccc(F)cc3)c3c2CN(C(=O)c2ccc[nH]2)C[C@]3(C)C(N)=O)cc1C [GSK864]
Effect on MMP1 chromosome conformations (3C MMP1 copy number), in words ([1]; DBTRG cell line, GSK864 1 μm, over 24 hrs and 48 hrs): binary difference; also recorded: direct action on 3C MMP1 copy number
Copy number in 20 ng ([1]; DBTRG cells, 24 hr, GSK 1 um, MMP1 3C): NaN (NaN = 0 copies)
Effect on MMP1 chromosome conformations (3C MMP1 copy number), in words ([2]; HL60 cell line, GSK864 1 μm, over 24 hrs and 48 hrs): quantitative differences; also recorded: binary quantitative difference; also recorded: direct action on 3C MMP1 copy number
Cq ([2]; HL-60 cells, 48 hr GSK864): 40.33 and 37.5 and 37.11

Cc1ccc(NC(=O)c2ccc(CN3CCN(C)CC3)cc2)cc1Nc1nccc(-c2cccnc2)n1 [Imatinib]
cKIT 3C interaction in imatinib treated cells [3]: completely absent
MMP1 copy number (MMP1 3C interaction; 20 ng of template per well): 37.22 and 26.43 and 31.45
Cq (MMP1 3C interaction; MMP1 3C interaction): 35.64 and 36.15 and 35.89
